In paper PMC6934184, “Selective DNA-PKcs inhibition extends the therapeutic index of localized radiotherapy and chemotherapy” (The Journal of Clinical Investigation, 2019):

Molecular target: T1, PIM1 (Homo sapiens, UniProt P11309)
T1 construct: purchased Thermo Fisher Scientific (Life Technologies) SelectScreen
Experiment: SelectScreen Z'LYTE
Assay type: biochemical
Outline: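 NU5455 was profiled across the SelectScreen Broad panel of kinase activity and binding assays. Z'LYTE reactions such as CSF1R ran at apparent Km ATP, while the Adapta CAMK1 assay used ATP listed as 10. Values are given as percent.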

T1 sequence (P11309 whole entry): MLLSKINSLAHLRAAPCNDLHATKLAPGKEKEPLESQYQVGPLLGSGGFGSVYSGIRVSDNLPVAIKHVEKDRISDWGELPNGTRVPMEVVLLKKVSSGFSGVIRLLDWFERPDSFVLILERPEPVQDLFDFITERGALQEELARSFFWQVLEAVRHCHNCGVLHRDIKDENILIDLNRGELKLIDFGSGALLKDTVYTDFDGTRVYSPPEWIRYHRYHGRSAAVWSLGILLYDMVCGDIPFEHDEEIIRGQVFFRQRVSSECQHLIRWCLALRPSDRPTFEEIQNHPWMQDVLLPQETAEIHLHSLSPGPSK

CN(C(=O)CN1CCOCC1)c1ccc2sc3c(-c4cccc5c(=O)cc(N6CC7CCC(C6)O7)oc45)cccc3c2c1 [NU5455]
inhibition at 1 µM: -1%
